Test results reported in US20230390273A1, “4-PHENYL-TETRAHYDROPYRIDINE DERIVATIVES FOR TREATING HEARING DISEASES” (CILCARE DEV, priority 2021, published 2023).
Where a name gives a salt, the structure may show the parent alone.

Columns and labels:
[1] = tested on: male CBA/CaJ mice; test: ABR Wave I amplitude after noise-induced temporary hearing loss (Example 8); type: in vivo
Protocol: Twelve male CBA/CaJ mice were selected and evenly distributed to treatment and control groups, each group comprising 4 mice at the end of the study. Randomization was performed using the ABR threshold in the left ear at 16 kHz as a criterium. The “sham” group consists in mice (n=4) that received neither noise exposure nor trans-tympanic injection. The “Traumatized” group consists in mice (n=4) that received noise exposure only. The “traumatized paliroden” group consists in mice (n=4) that received noise exposure and trans-tympanic injections of a composition comprising paliroden (fumarate salt), corresponding to composition 4P described in Example 2.
All animals (except sham group) received a bilateral noise exposure at a noise band of 8-16 kHz at 95 dB SPL RMS during 2 hours (from time T0 to time T0+2 hours) in awake conditions.
Five microliters of a composition comprising paliroden as active agent were administered once in both ears of each mice of the treatment groups (5 μL per ear) via trans-tympanic administration by injection between the eardrum and the round window by means of a needle which crosses the eardrum, 24 hours post noise exposure, under isoflurane anesthesia. […]

[2] = tested on: synaptic ribbons in inner hair cells; test: Ribbon synapse immunostaining and counting in cochlea (Example 8); type: in vivo, male CBA/CaJ mice
Protocol: At T+35 days, after DPOAE/ABR measures, all cochlea (four (4) left cochleae and four (4) right cochleae) per group were rapidly sampled and immediately fixed by PFA perfusion (through the round and oval windows with PFA 4% after creating a small hole at the apex) in order to performed ribbon synapse immunostaining and analysis. Cochleae were fixed for 1 hour in a 4% PFA solution and decalcified in undiluted RDO (10 mL/cochlea for a minimum of 2 hours). The membranous and sensory spiral containing the organ of Corti are dissected out as a flat surface preparation under a dissecting microscope and immunolabelled with appropriate antibodies: • Vglut3 (Vglut3-Guinea Pig IgG; #135 204, Synaptic systems and Anti-Guinea Pig IgG (H+L), #A21450; Thermo Fisher Scientific 647 nm Far-Red) to stain inner hair cell bodies (vesicular glutamate transporter). • Homer (Homer-Rabbit IgG; #GTX103278; Genetex and Anti-Rabbit IgG (H+L) #A11008 Thermo Fisher Scientific 568 nm Red) to stain dendritic proteins of auditory nerve fibers connecting to IHC (post-synaptic). • CtBP2 (CtBP2-Mouse-IgG1; #612044; BD Transduction Laboratories and Anti-Mouse IgG1, #A21121, Thermo Fisher Scientific 488 Green) to stain the ribeye protein as pre-synaptic marker in IHC. • Phalloidin (Alexa Fluor™ Plus 405 Phalloidin; #A30104; Thermo Fisher Scientific 405 Blue).
Images were acquired on a confocal microscope and the slides were analyzed to i) evaluate by visual observation the presence of OHC and IHC (based on nuclei staining with CtBP2 and HC cell body staining with phalloidin) and ii) count the number of synaptic ribbons in selected inner hair cells in cochlea regions coding sound of selected frequency (25, 32 and 45 kHz).
The number of pre- (CtBP2) and post-synaptic (Homer) labeled spots was counted using Imaris software in 3 dimensions for each image. Co-localization of pre- and post-synaptic elements was defined as a distance of maximum […] between CtBP2- and Homer-labeled spots, using an in-house Matlab program to calculate the distances between CtBP2 and Homer labels from the x, y, and z coordinates.

FC(F)(F)c1cccc(C2=CCN(CCc3ccc(-c4ccccc4)cc3)CC2)c1 [paliroden (fumarate salt), 1-[2-(4-biphenylyl)ethyl]-4-(3-trifluoromethylphenyl)-1,2,3,6-tetrahydropyridine]
Recovery of the ABR Wave I amplitudes ([1]; 5 weeks post-noise, 16, 25, 32, 40, 45 kHz, paliroden 50 μg/ear one day post-noise): complete recovery
ABR Wave I amplitude recovery in comparison to traumatized untreated mice, subset analysis ([1]; 25, 32, 40 and 45 kHz, p values <0.001): statistically significant
Number of colocalized ribbons per IHC ([2]; 25 kHz to 40 kHz, not statistically different to sham): intermediate between traumatized and control mice
Number of pre-synaptic and post-synaptic elements (CtBP2 and Homer) per IHC ([2]; 32 kHz, vs traumatized untreated, paliroden 50 μg/ear one day post-noise, subset): tended to increase
Colocalized ribbons per IHC ([2]; 32 kHz, vs traumatized untreated, paliroden 50 μg/ear, subset): increase
